pIC50: −log10 of the molar value. Calls of active or inactive are those of the source. The calls are words filed in the database; no cut-off is given here.
What was measured:
[1] = test system: SH-SY5Y; test: Cytotoxicity against human SH-SY5Y cells assessed as cell viability at 10 uM after 48 hrs by MTT assay relative to control; format: cell-based
[2] = Metabolic stability in human liver microsomes assessed as half life; format: ADME, Microsome
[3] = Metabolic stability in mouse liver microsomes assessed as half life; format: ADME, Microsome
[4] = biological target: Mitogen-activated protein kinase 14 (Homo sapiens, UniProt Q16539); test: Inhibition of P38alpha (unknown origin)
[5] = biological target: Mitogen-activated protein kinase 10 (Rattus norvegicus) (UniProt P49187); test: Inhibition of JNK3 in rat primary neuron assessed as reduction in phosphorylation of APP at T688 residue at 10 nM incubated for 30 mins by Western blot analysis; settings: dose nM 10, time 30.0 min
[6] = Brain concentration in C57BL/6J mouse at 10 mg/kg, po measured after 1 hr by LC-MS/MS analysis; format: ADME, organism-based; settings: read-out: Drug uptake
[7] = Plasma concentration in C57BL/6J mouse at 10 mg/kg, po measured after 1 hr by LC-MS/MS analysis; format: ADME, organism-based

Sequence of Mitogen-activated protein kinase 10 (Rattus norvegicus) (P49187 whole entry): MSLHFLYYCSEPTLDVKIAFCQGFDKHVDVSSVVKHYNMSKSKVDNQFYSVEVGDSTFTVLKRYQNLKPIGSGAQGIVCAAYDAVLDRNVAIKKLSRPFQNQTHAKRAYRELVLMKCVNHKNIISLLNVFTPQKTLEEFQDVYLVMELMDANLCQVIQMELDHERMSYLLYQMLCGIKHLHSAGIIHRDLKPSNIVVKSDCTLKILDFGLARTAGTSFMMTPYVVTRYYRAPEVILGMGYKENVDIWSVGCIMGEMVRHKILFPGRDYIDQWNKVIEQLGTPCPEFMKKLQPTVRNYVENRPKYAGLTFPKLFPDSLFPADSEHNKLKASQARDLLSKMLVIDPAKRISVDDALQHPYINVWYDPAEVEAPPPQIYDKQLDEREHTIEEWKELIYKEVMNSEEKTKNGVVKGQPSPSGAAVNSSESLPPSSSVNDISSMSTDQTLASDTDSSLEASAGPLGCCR
Sequence of Mitogen-activated protein kinase 14 (Q16539 whole entry): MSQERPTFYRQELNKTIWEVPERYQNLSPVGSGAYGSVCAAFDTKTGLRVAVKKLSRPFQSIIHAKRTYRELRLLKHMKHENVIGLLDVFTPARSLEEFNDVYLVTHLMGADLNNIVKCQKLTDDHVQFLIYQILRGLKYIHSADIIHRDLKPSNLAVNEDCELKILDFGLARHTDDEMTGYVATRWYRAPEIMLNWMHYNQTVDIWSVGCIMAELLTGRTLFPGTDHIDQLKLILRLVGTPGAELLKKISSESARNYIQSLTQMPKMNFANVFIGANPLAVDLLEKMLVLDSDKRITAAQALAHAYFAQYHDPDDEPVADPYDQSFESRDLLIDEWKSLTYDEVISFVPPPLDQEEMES

| SMILES | Activity [1] | t1/2 [2] | t1/2 [3] | pIC50 [4] | inhibition [5] | concentration at 1 h [6] | concentration at 1 h [7] |
| --- | --- | --- | --- | --- | --- | --- | --- |
| Cc1sc(C(=O)NC2COC2)cc1-n1cc(NC(=O)Nc2c(F)cccc2Cl)cn1 | 111% | 110 min | 57 min | – | – | – | – |
| O=C(Nc1cnn(-c2csc(C(=O)NC3CC3)c2)c1)Nc1ccccc1Cl | 103% | 49 min | 35 min | – | – | – | – |
| CN1CC[C@H](CNC(=O)c2cc(-n3cc(NC(=O)Nc4ccccc4Cl)cn3)cs2)C1 | – | – | – | < 4.70 | – | – | – |
| O=C(Nc1cnn(-c2csc(C(=O)NC[C@H]3CCOC3)c2)c1)Nc1ccccc1Cl | – | – | – | < 4.70 | – | – | – |
| CN1CCC[C@H]1CNC(=O)c1cc(-n2cc(NC(=O)Nc3ccccc3Cl)cn2)cs1 | – | – | – | < 4.70 | – | – | – |
| O=C(Nc1cnn(-c2cc(C(=O)NC3CNC3)cs2)c1)Nc1ccccc1Cl | – | – | – | < 4.70 | – | – | – |
| CC(C)N1CC[C@H](NC(=O)c2cc(-n3cc(NC(=O)Nc4ccccc4Cl)cn3)cs2)C1 | – | – | – | < 4.70 | – | – | – |
| O=C(Nc1cnn(-c2csc(C(=O)NC3COC3)c2)c1)Nc1c(F)cccc1Cl | 102% | 100 min | 72 min | – | – | – | – |
| CN1CC[C@H](NC(=O)c2cc(-n3cc(NC(=O)Nc4ccccc4Cl)cn3)cs2)C1 | 94% | 54 min | – | < 4.70 | – | – | – |
| O=C(Nc1cnn(-c2csc(C(=O)NC3CCOCC3)c2)c1)Nc1ccccc1Cl | 97% | – | 16 min | – | – | – | – |
| O=C(Nc1cnn(-c2csc(C(=O)NC3COC3)c2)c1)Nc1ccc(F)cc1Cl | 104% | > 120 min | 68 min | – | Active | – | – |
| [2H]C([2H])([2H])N1CC[C@@H](NC(=O)c2cc(-n3cc(NC(=O)Nc4ccccc4Cl)cn3)cs2)C1 | – | – | – | < 4.70 | – | – | – |
| Cc1sc(C(=O)N[C@@H]2CCOC2)cc1-n1cc(NC(=O)Nc2c(F)cccc2Cl)cn1 | 114% | 40 min | 38 min | – | Active | – | – |
| O=C(Nc1cnn(-c2csc(C(=O)NC3COC3)c2)c1)Nc1ccccc1Cl | 104% | 66 min | 24 min | < 4.70 | Active | 1080 nM | 960 nM |
| O=C(Nc1cnn(-c2csc(C(=O)N[C@@H]3CCOC3)c2)c1)Nc1ccccc1Cl | 112% | 33 min | 13 min | < 4.70 | – | – | – |
| O=C(Nc1cnn(-c2csc(C(=O)NCC3CCOCC3)c2)c1)Nc1ccccc1Cl | 95% | 8 min | 15 min | – | – | – | – |
| O=C(Nc1cnn(-c2csc(C(=O)N[C@@H]3CCNC3)c2)c1)Nc1ccccc1Cl | – | – | – | < 4.70 | – | – | – |
| CN1CC[C@@H](NC(=O)c2cc(-n3cc(NC(=O)Nc4ccccc4Cl)cn3)cs2)C1 | – | – | – | < 4.70 | – | – | – |
| CN1CCC(NC(=O)c2cc(-n3cc(NC(=O)Nc4ccccc4Cl)cn3)cs2)CC1 | 89% | 92 min | 15 min | – | – | – | – |
